{
  "source": "patent US20250302712A1",
  "about": "“COMPOSITION FOR SKIN MOISTURIZING COMPRISING PHENYLLACTIC ACID” (AMOREPACIFIC CORPORATION, priority 2024, published 2025)",
  "tested_on": "HAS2 (Hyaluronan synthase 2)",
  "assay": "HAS2 gene expression in blue light irradiated human keratinocytes (HaCaT), Taqman real-time PCR",
  "format": "cell-based",
  "details": "blue light 410 nm 120 J/cm^2, PLA 50 μM (8.3 ppm)",
  "experimental": "The Lactobacillus plantarum APsulloc 331261 (KCCM11179P) strain used in Experimental Example above was inoculated into a medium containing MRS broth, phenylalanine at a concentration of 40 mM, and calcium carbonate at a concentration of 1%, and the culture medium was cultured for 3 days. The cells were removed by centrifugation, and 1 liter was prepared. An equal amount of ethyl acetate was added to the prepared culture medium and the reaction was performed, and the water layer and the ethyl acetate layer of the culture medium were waited for separation. The separated ethyl acetate layer was heated and distilled, and an appropriate amount of water (about 100 mL) was added to the remaining concentrate to prepare a Lactobacillus culture extract containing phenyllactic acid. […]\nIn addition, the hyaluronic acid production promotion effect of the culture medium of Lactobacillus strains prepared as shown in Table 1 was compared. The strains Lactobacillus plantarum APsulloc 331261 (KCCM11179P), Lactobacillus plantarum KCTC3108, Lactobacillus acidophilus KCTC3164, and Lactobacillus sakei KTCT3603 were inoculated into MRS broth, and 0.5% of the culture medium static-cultured at 35° C. for 3 days was added, and the gene expression amount of HAS2 (Hyaluronan synthase 2) was measured in the same manner as above.",
  "data": [
    {"molecule": "O=C(O)C(O)Cc1ccccc1", "note": "(stereo not shown) [PLA, Phenyllactic acid]", "values": [
      {"measurement": "HAS2 gene expression", "value": "significantly improved the decrease in HAS2 gene expression caused by blue light"}
    ]}
  ]
}
